Assay results taken from PubChem BioAssay (NCI).
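Method: 48-hour compound exposure of cells in 96-well plates, five concentrations, linear interpolation of endpoints. TGI is the concentration that stops growth completely.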

What was measured:
Assay in all cases: NCI tumour cell line growth inhibition, 48 h
[1] = system: LOX IMVI melanoma
[2] = system: SF-268 CNS
[3] = system: SNB-19 CNS
[4] = system: NCI-H460 lung
[5] = system: UACC-257 melanoma
[6] = system: NCI-H522 lung
[7] = system: HOP-92 NSCLC
[8] = system: SK-MEL-2 melanoma
[9] = system: T-47D breast
[10] = system: SK-MEL-28 melanoma
[11] = system: MALME-3M melanoma
[12] = system: MDA-MB-435
[13] = system: IGROV1 ovarian
[14] = system: HT29 colon
[15] = system: HCT-15 colon
[16] = system: HOP-62 NSCLC
[17] = system: 786-0 renal
[18] = system: OVCAR-8 ovarian
[19] = system: RXF 393 renal
[20] = system: RPMI-8226 leukemia
[21] = system: HCT-116 colon
[22] = system: SW-620 colon
[23] = system: SF-295 CNS
[24] = system: COLO 205 colon
[25] = system: NCI-H23 lung
[26] = system: OVCAR-5 ovarian
[27] = system: DU-145 prostate
[28] = system: SK-MEL-5 melanoma
[29] = system: KM12 colon
[30] = system: SK-OV-3 ovarian
[31] = system: UACC-62 melanoma
[32] = system: CAKI-1 renal
[33] = system: EKVX NSCLC
[34] = system: ACHN renal
[35] = system: A498 renal
[36] = system: NCI-H226 lung
[37] = system: MDA-MB-231 breast
[38] = system: SNB-75 CNS
[39] = system: A549 NSCLC
[40] = system: SN12C renal
[41] = system: MCF7 breast
[42] = system: TK-10 renal
[43] = system: SF-539 CNS
[44] = system: MOLT-4 leukemia
[45] = system: MDA-N
[46] = system: U251 CNS
[47] = system: OVCAR-4 ovarian
[48] = system: OVCAR-3 ovarian
[49] = system: PC-3 prostate
[50] = system: BT-549 breast
[51] = system: NCI/ADR-RES ovarian
[52] = system: M14 melanoma
[53] = system: HCC-2998 colon
[54] = system: UO-31 renal
[55] = system: HS 578T breast
[56] = system: CCRF-CEM leukemia
[57] = system: K-562 leukemia
[58] = system: HL-60(TB) leukemia

O=C1/C(=C/c2ccccc2)CCCC1CN1CCCCC1 (configuration not stated)
TGI [1]: 3.3 µM | TGI [2]: 3.59 µM | TGI [3]: 29.1 µM | TGI [4]: 32.4 µM | TGI [5]: 22 µM | TGI [6]: 2.05 µM | TGI [7]: 6.05 µM | TGI [8]: 15.8 µM | TGI [9]: 3.92 µM | TGI [10]: 3.77 µM | TGI [11]: 3.97 µM | TGI [12]: 4.26 µM | TGI [13]: 8.38 µM | TGI [14]: 2.98 µM | TGI [15]: 4.85 µM | TGI [16]: 35.5 µM | TGI [17]: 4.26 µM | TGI [18]: 4.13 µM | TGI [19]: 3.76 µM | TGI [20]: > 100 µM | TGI [21]: 3.15 µM | TGI [22]: 2.64 µM | TGI [23]: 33.6 µM | TGI [24]: 10.4 µM | TGI [25]: 16.7 µM | TGI [26]: 33.8 µM | TGI [27]: 27.3 µM | TGI [28]: 15.6 µM | TGI [29]: 2.78 µM | TGI [30]: 31 µM | TGI [31]: 19.7 µM | TGI [32]: 3.2 µM | TGI [33]: 28.8 µM | TGI [34]: 11.8 µM | TGI [35]: 30.4 µM | TGI [36]: 9.87 µM | TGI [37]: 3.89 µM | TGI [38]: 20.5 µM | TGI [39]: 34.9 µM | TGI [40]: 18.5 µM | TGI [41]: 1.69 µM | TGI [42]: 8.02 µM | TGI [43]: 11.7 µM | TGI [44]: > 100 µM | TGI [45]: 4.13 µM | TGI [46]: 27 µM | TGI [47]: 3.83 µM | TGI [48]: 3.24 µM | TGI [49]: 24.1 µM | TGI [50]: 8.91 µM | TGI [51]: 13 µM | TGI [52]: 3.36 µM | TGI [53]: 29 µM | TGI [54]: 3.82 µM | TGI [55]: 16.9 µM

CC[C@]1(O)CC(OC2CC(N(C)C)C(O)C(C)O2)c2c(cc3c(c2O)C(=O)c2c(O)cccc2C3=O)[C@@H]1C(=O)OC (some centres not stated)
TGI [1]: 0.635 µM | TGI [2]: 2.2 µM | TGI [3]: 7.03 µM | TGI [4]: 3.46 µM | TGI [5]: 1.88 µM | TGI [6]: 1.65 µM | TGI [7]: 1.51 µM | TGI [8]: 1.82 µM | TGI [9]: 5.54 µM | TGI [10]: 3.04 µM | TGI [56]: 3.39 µM | TGI [11]: 1.01 µM | TGI [12]: 1.44 µM | TGI [13]: 3.21 µM | TGI [14]: 5.09 µM | TGI [15]: 2.75 µM | TGI [16]: 2.14 µM | TGI [17]: 5.58 µM | TGI [18]: 5.11 µM | TGI [19]: 1.76 µM | TGI [57]: 0.982 µM | TGI [21]: 10.4 µM | TGI [22]: 3.95 µM | TGI [23]: 3.31 µM | TGI [24]: 3.79 µM | TGI [25]: 2.47 µM | TGI [26]: 13.9 µM | TGI [27]: 12.9 µM | TGI [28]: 0.941 µM | TGI [29]: 3.2 µM | TGI [30]: 2.18 µM | TGI [31]: 0.904 µM | TGI [32]: 0.377 µM | TGI [33]: 3.86 µM | TGI [34]: 0.963 µM | TGI [35]: 1.13 µM | TGI [36]: 2.17 µM | TGI [37]: 4.2 µM | TGI [38]: 1.42 µM | TGI [39]: 6.59 µM | TGI [40]: 6.85 µM | TGI [41]: 6.17 µM | TGI [42]: 5.07 µM | TGI [43]: 2.51 µM | TGI [44]: 0.677 µM | TGI [45]: 1.92 µM | TGI [46]: 5.57 µM | TGI [47]: 1.49 µM | TGI [48]: 5.67 µM | TGI [49]: 1.8 µM | TGI [50]: 4.97 µM | TGI [51]: 3.95 µM | TGI [52]: 2.07 µM | TGI [53]: 1.54 µM | TGI [54]: 0.635 µM | TGI [55]: 4.21 µM

O=C(O)c1cc2ccccc2c(N=Nc2ccccc2)c1O
TGI [2]: > 100 µM | TGI [3]: 79.6 µM | TGI [5]: 30.5 µM | TGI [6]: 59.6 µM | TGI [7]: > 100 µM | TGI [58]: 33.1 µM | TGI [9]: > 100 µM | TGI [10]: > 100 µM | TGI [56]: > 100 µM | TGI [11]: 26.6 µM | TGI [12]: 35.5 µM | TGI [13]: > 100 µM | TGI [14]: 54.8 µM | TGI [15]: > 100 µM | TGI [16]: 32.5 µM | TGI [17]: > 100 µM | TGI [18]: > 100 µM | TGI [19]: 72.5 µM | TGI [57]: > 100 µM | TGI [20]: > 100 µM | TGI [21]: > 100 µM | TGI [22]: > 100 µM | TGI [23]: 25.9 µM | TGI [24]: 47.2 µM | TGI [25]: 56.1 µM | TGI [26]: > 100 µM | TGI [27]: 29.7 µM | TGI [28]: 28.2 µM | TGI [29]: 36.4 µM | TGI [30]: > 100 µM | TGI [31]: 35.2 µM | TGI [32]: 84.2 µM | TGI [33]: 96.6 µM | TGI [34]: 69.5 µM | TGI [35]: > 100 µM | TGI [37]: > 100 µM | TGI [38]: 36 µM | TGI [39]: 40.1 µM | TGI [40]: 74.1 µM | TGI [42]: > 100 µM | TGI [44]: > 100 µM | TGI [45]: 58.4 µM | TGI [46]: 45.1 µM | TGI [47]: > 100 µM | TGI [48]: > 100 µM | TGI [49]: 60.1 µM | TGI [50]: 45.1 µM | TGI [51]: 90.4 µM | TGI [52]: 37.9 µM | TGI [54]: > 100 µM | TGI [55]: > 100 µM
